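Step 1: Grow cells in 96-well plates. Step 2: Expose to compound for 48 hours at 5 concentrations. Step 3: Interpolate endpoints linearly; if unreached, use highest concentration. GI50: concentration for 50% inhibition of growth. TGI marks complete inhibition of growth.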
Tests used:
Test in all cases: inhibition of tumour cell growth, NCI panel, 48 h
MOLT-4 leukemia = tested on: MOLT-4 leukemia
RXF 393 renal = tested on: RXF 393 renal
OVCAR-8 ovarian = tested on: OVCAR-8 ovarian
SW-620 colon = tested on: SW-620 colon
MDA-MB-231 breast = tested on: MDA-MB-231 breast
LOX IMVI melanoma = tested on: LOX IMVI melanoma
UACC-62 melanoma = tested on: UACC-62 melanoma
DU-145 prostate = tested on: DU-145 prostate
786-0 renal = tested on: 786-0 renal

| SMILES | TGI (MOLT-4 leukemia) [µM] | TGI (RXF 393 renal) [µM] | TGI (OVCAR-8 ovarian) [µM] | TGI (SW-620 colon) [µM] | TGI (MDA-MB-231 breast) [µM] | TGI (LOX IMVI melanoma) [µM] | TGI (UACC-62 melanoma) [µM] | TGI (DU-145 prostate) [µM] | TGI (786-0 renal) [µM] | GI50 (MOLT-4 leukemia) [µM] | GI50 (OVCAR-8 ovarian) [µM] | GI50 (SW-620 colon) [µM] | GI50 (MDA-MB-231 breast) [µM] | GI50 (UACC-62 melanoma) [µM] | GI50 (DU-145 prostate) [µM] | GI50 (RXF 393 renal) [µM] | GI50 (LOX IMVI melanoma) [µM] |
| --- | --- | --- | --- | --- | --- | --- | --- | --- | --- | --- | --- | --- | --- | --- | --- | --- | --- |
| Cc1nc(C)c(N2CCN(CN)CC2)c(=O)[nH]1 | > 100 | > 100 | > 100 | > 100 | > 100 | > 100 | > 100 | > 100 | > 100 |  |  |  |  |  |  |  |  |
| O=C1N2CCC[C@H]2CS1(=O)=O | 22.5 | 21.7 | 55.1 | 42.1 | 29.6 | 27.3 | 30 | 35.8 | 23.1 |  |  |  |  |  |  |  |  |
| CC(c1ccccc1)n1cncc1C(=O)NN1CCN(C)CC1 (configuration not stated) | > 10 | > 10 | > 10 | > 10 | > 10 | > 10 | > 10 | > 10 | > 10 |  |  |  |  |  |  |  |  |
| S=C1C(=Nc2ccccc2)N(c2ccccc2)/C(=N\c2cccc[n+]2Cc2ccccc2)N1c1ccccc1 | > 100 | 27.3 | 38.7 | 35.7 | 31.3 |  | 25 | > 100 | 30 |  |  |  |  |  |  |  |  |
| COc1cc2nc(N3CCC[C@H](NC4=CC(=O)c5ccccc5C4=O)C3)nc(N)c2cc1OC | 5.9 |  | 4.28 | 3.32 | 3.3 |  | 4.72 | 3.58 |  | 2.37 | 2.06 | 1.5 | 1.63 | 2.14 | 1.96 |  |  |
| CCOC(=O)c1c(N2CCCC2)[nH]c(=O)c(C(c2ccc(N(C)C)cc2)c2c(O)c(C(=O)OCC)c(N3CCCC3)[nH]c2=O)c1O | > 100 | > 100 | > 100 | > 100 | > 100 | > 100 | > 100 | > 100 | > 100 |  |  |  |  |  |  |  |  |
| O=c1[nH]n(CCc2ccccc2CCl)c2ccc([N+](=O)[O-])cc12 | > 100 | > 100 | > 100 | > 100 | > 100 | > 100 | > 100 | > 100 | > 100 |  |  |  |  |  |  |  |  |
| COc1c(C)c(C/C=C(\C)CCCC(C)CCCC(C)CCCC(C)C)c(OC)c2ccccc12 (configuration not stated) | > 100 | > 100 | > 100 | > 100 | > 100 | > 100 | > 100 | > 100 | > 100 |  |  |  |  |  |  |  |  |
| Cn1c2ccc(Cl)cc2c2ccc3c(c21)C(=O)C=CC3=O | > 10 |  | > 10 | > 10 | > 10 | > 10 | > 10 | > 10 | > 10 |  |  |  |  |  |  |  |  |
| COc1cc2c3c(n(C)c(=O)c2cc1OC)-c1cc2c(cc1/C3=C\CCCCCBr)OCO2 | 10.5 |  | > 100 | > 100 | > 100 | 13.7 | 29 | > 100 | > 100 |  |  |  |  | 3.87 | 5.54 |  |  |
| CC(OP(=O)(O)O)C(N)C(=O)O (configuration not stated) | > 100 | > 100 | > 100 | > 100 | > 100 | > 100 | > 100 | > 100 | > 100 |  |  |  |  |  |  |  |  |
| O=c1[nH]cc(N=Cc2cc(Cl)ccc2O)c(=O)[nH]1 | 63.1 | > 100 | 76.9 |  | > 100 |  | 71.7 | 66.8 | 70.6 |  |  |  |  |  |  |  |  |
| COc1ccc(OC)c2c(C)ccnc12 |  | > 100 | > 79.2 | > 85.6 | > 100 | 46.5 | 93.5 | > 100 | > 100 |  |  |  |  |  |  |  |  |
| O=C1C=C(N2CCN(c3ncccn3)CC2)C(=O)c2c(O)ccc(O)c21 | > 100 |  | > 100 | > 100 | > 100 | > 100 | > 100 | > 100 | > 100 |  |  |  |  |  |  |  |  |
| Cc1ccc(S(=O)(=O)OCCC2CN(C(=O)OCc3ccccc3)C(C)(C)O2)cc1 (configuration not stated) | 47.8 | > 100 | 29.4 | > 100 | > 100 | > 100 | > 100 | > 100 | > 100 |  |  |  |  |  |  |  |  |
| Cc1ccc(N=C/C=C(\Nc2ccc(C)cc2)c2ccc3ccccc3c2)cc1 | 0.533 | 8.52 | > 100 | 24.9 | 2.12 | 1.91 | 1.3 | 10.7 | 3.38 |  |  |  |  |  |  |  |  |
| Cc1cc(N2CCCCC2)nc2ccc(Cc3ccc4nc(N5CCCCC5)cc(C)c4c3)cc12 | > 100 | > 100 | > 100 | > 100 | > 100 | > 100 | > 100 | > 100 | > 100 |  |  |  |  |  |  |  |  |
| O=c1cc(N2CCOCC2)n2c(ccc3ccccc32)n1 | > 100 | > 100 | > 100 | > 100 | > 100 | > 100 | > 100 |  | > 100 |  |  |  |  |  |  |  |  |
| O=C(O)Cn1c2c(c3c1-c1ccccc1C3=O)C(=O)CCC2 | > 100 | > 100 | > 100 | > 100 | > 100 | > 100 |  | > 100 |  | > 100 | > 100 | > 100 | > 100 |  | > 100 | > 100 | > 100 |
| CC(C)OP(=O)(OC(C)C)C(C(C)C)N(C)C(N)=NC#N (configuration not stated) | > 100 | > 100 | > 100 | > 100 | > 100 | > 100 | > 100 | > 100 |  |  |  |  |  |  |  |  |  |
| CCCC1=C(OC)C(=O)c2c(C)cc(Cl)nc2C1=O | 3.72 | 20.2 | 23.7 | 10.5 | 19.5 | 5.15 | 13.8 | 28.6 | 5.23 |  |  |  |  |  |  |  |  |
| N/N=C(/N)SCCCCCCCCCCS/C(N)=N/N |  |  | 39.3 | 36.6 | 85.2 | 23.7 | 47.1 | > 100 | > 100 |  |  |  |  |  |  |  |  |

Source: PubChem BioAssay (NCI)
